Assay results as given in patent US9783524B2, “Protein tyrosine kinase modulators and methods of use” (BETTA PHARMACEUTICALS CO., LTD., priority 2013, dated 2017).
Read-outs that look alike come from different tables or passages of the source.

How the values were obtained:
ALK (h) = type: biochemical, human; details: 0.1 μM test compound, 10 μM ATP; remaining activity relative to DMSO control = 100%
Description: (§1) Assay conditions included 10 μM ATP and 100 nM test compounds.
(§2) All reactions are initiated by the addition of the MgATP mix. After incubation for 40 minutes at room temperature, the reaction is stopped by the addition of 3% phosphoric acid solution. 10 μL of the reaction is then spotted onto a P30 filtermat and washed three times for 5 minutes in 75 mM phosphoric acid and once in methanol prior to drying and scintillation counting. This assay is performed by Millipore. The experiment is carried out in duplicate. The value for the control sample (DMSO) was set to 100%, and the values for the compound-treated samples were expressed as activity relative to the control sample.

EGFR (T790M, L858R) (h) = type: biochemical, human
Description: as §1
(§3) All reactions are initiated by the addition of the MgATP mix. After incubation for 40 minutes at room temperature, the reaction is stopped by the addition of 3% phosphoric acid solution. 10 μL of the reaction is then spotted onto a P30 filtermat and washed three times for 5 minutes in 75 mM phosphoric acid and once in methanol prior to drying and scintillation counting. […] The experiment is carried out in duplicate. The value for the control sample (DMSO) was set to 100%, and the values for the compound-treated samples were expressed as activity relative to the control sample.
(§4) (specific activity approx. 500 cpm/pmol, concentration as required) and 0.1 μM test compound.

EGFR (L858R) (h) = type: biochemical, human
Description: as §1, §3, §4

[1] = system: activated and resistant T790M forms of EGFR; assay: In vitro cellular assays, overall statement; type: cell-based; details: result in words
Description: Effects of test compounds on in vitro proliferation were measured by MTS cell viability assay.

EGFR (h) = type: biochemical, human
Description: as §1, §3, §4

EGFR (T790M) (h) = type: biochemical, human
Description: as §1, §2

[2] = 0.1 μM test compound, 10 μM ATP, remaining activity relative to DMSO control = 100%

| Structure (SMILES) | Activity (control) % ALK (h) (ALK (h)) [%] | Activity (control) % EGFR (T790M, L858R) (h) (EGFR (T790M, L858R) (h)) [%] | Activity (control) % EGFR (L858R) (h) (EGFR (L858R) (h)) [%] | activity against both activated and resistant T790M forms of EGFR in vitro cellular assays [1] | Activity (control) % EGFR (h) (EGFR (h)) [%] | Activity (control) % EGFR (T790M) (h) (EGFR (T790M) (h)) [%] | Activity (control) % EGFR (T790M, L858R) (h) (EGFR (T790M, L858R) (h); [2]) [%] | Activity (control) % EGFR (L858R) (h) (EGFR (L858R) (h); [2]) [%] | Activity (control) % EGFR (h) (EGFR (h); [2]) [%] | Activity (control) % EGFR (T790M) (h) (EGFR (T790M) (h); [2]) [%] |
| --- | --- | --- | --- | --- | --- | --- | --- | --- | --- | --- |
| COc1cc(Nc2ncc(Cl)c(Nc3ccccc3C(=O)C(=O)N(C)C)n2)ccc1N1CCC(N(C)C)CC1 [Example 118, 2-(2-(5-chloro-2-(4-(4-(dimethylamino)piperidin-1-yl)-3-methoxyphenylamino)pyrimidin-4-ylamino)phenyl)-N,N-dimethyl-2-oxoacetamide] | 3 | 2 | 29 | potent activity | 82 | 18 | – | – | – | – |
| C=CC(=O)Nc1cc(Nc2ncc(Cl)c(Nc3ccccc3C(=O)C(=O)N(C)CCN(C)C)n2)ccc1OC [Example 102, N-(5-(5-chloro-4-(2-(2-((2-(dimethylamino)ethyl)(methyl)amino)-2-oxoacetyl)phenylamino)pyrimidin-2-ylamino)-2-methoxyphenyl)acrylamide] | 5 | – | – | – | – | – | 5 | 57 | 98 | 40 |
| C=CC(=O)Nc1cc(Nc2ncc(Cl)c(Nc3ccccc3C(=O)C(=O)N(C)C)n2)c(OC)cc1F [Example 66, N-(5-(5-chloro-4-(2-(2-(dimethylamino)-2-oxoacetyl)phenylamino)pyrimidin-2-ylamino)-2-fluoro-4-methoxyphenyl)acrylamide] | 35 | – | – | potent activity | – | – | 24 | – | – | 66 |
| C=C(CN(C)C)C(=O)Nc1ccc(OC)c(Nc2ncc(Cl)c(Nc3ccccc3C(=O)C(=O)N(C)C)n2)c1 [Example 78, N-(3-(5-chloro-4-(2-(2-(dimethylamino)-2-oxoacetyl)phenylamino)pyrimidin-2-ylamino)-4-methoxyphenyl)-2-((dimethylamino)methyl)acrylamide] | 36 | – | – | – | – | – | 3 | 37 | 68 | 2 |
| C=CC(=O)Nc1cc(Nc2ncc(Cl)c(Nc3ccccc3C(=O)C(=O)N(C)C)n2)ccc1OC1CCOC1 (stereo not shown) [Example 124, N-(5-(5-chloro-4-(2-(2-(dimethylamino)-2-oxoacetyl)phenylamino)pyrimidin-2-ylamino)-2-(tetrahydrofuran-3-yloxy)phenyl)acrylamide] | 16 | – | – | – | – | – | 20 | 100 | 109 | 78 |
| C=C(CN1CCCCC1)C(=O)Nc1ccc(OC)c(Nc2ncc(Cl)c(Nc3ccccc3C(=O)C(=O)N(C)C)n2)c1 [Example 73, N-(3-(5-chloro-4-(2-(2-(dimethylamino)-2-oxoacetyl)phenylamino)pyrimidin-2-ylamino)-4-methoxyphenyl)-2-(piperidin-1-ylmethyl)acrylamide] | 17 | – | – | – | – | – | 3 | 37 | 67 | 3 |
| CN(C)C/C=C/C(=O)Nc1cccc(Nc2ncc(Cl)c(Nc3ccccc3C(=O)C(=O)N(C)C)n2)c1 [Example 114, (E)-N-(3-(5-chloro-4-(2-(2-(dimethylamino)-2-oxoacetyl)phenylamino)pyrimidin-2-ylamino)phenyl)-4-(dimethylamino)but-2-enamide] | 10 | – | – | – | – | – | 8 | 52 | 91 | 47 |
| C=C(CN1CCCC1)C(=O)Nc1ccc(OC)c(Nc2ncc(Cl)c(Nc3ccccc3C(=O)C(=O)N(C)C)n2)c1 [Example 97, N-(3-(5-chloro-4-(2-(2-(dimethylamino)-2-oxoacetyl)phenylamino)pyrimidin-2-ylamino)-4-methoxyphenyl)-2-(pyrrolidin-1-ylmethyl)acrylamide] | 23 | – | – | – | – | – | 6 | 46 | 74 | 2 |
| C=CC(=O)Nc1ccc(OC)c(Nc2ncc(Cl)c(Nc3ccccc3C(=O)C(=O)N(C)C)n2)c1 [Example 67, N-(3-(5-chloro-4-(2-(2-(dimethylamino)-2-oxoacetyl)phenylamino)pyrimidin-2-ylamino)-4-methoxyphenyl)acrylamide] | 13 | 9 | 85 | potent activity | – | 50 | – | – | – | – |
| C=C(CN1CCCCC1)C(=O)Nc1cccc(Nc2ncc(Cl)c(Nc3ccccc3C(=O)C(=O)N(C)C)n2)c1 [Example 113, N-(3-(5-chloro-4-(2-(2-(dimethylamino)-2-oxoacetyl)phenylamino)pyrimidin-2-ylamino)phenyl)-2-(piperidin-1-ylmethyl)acrylamide] | 19 | – | – | – | – | – | 3 | 78 | 88 | 16 |
| C=CC(=O)Nc1ccc(OC)c(Nc2ncc(Cl)c(Nc3ccccc3C(=O)C(=O)N3CCN(C)CC3)n2)c1 [Example 89, N-(3-(5-chloro-4-(2-(2-(4-methylpiperazin-1-yl)-2-oxoacetyl)phenylamino)pyrimidin-2-ylamino)-4-methoxyphenyl)acrylamide] | 8 | – | – | – | – | – | 1 | 10 | 67 | 5 |
| C=CC(=O)Nc1cc(Nc2ncc(Cl)c(Nc3ccccc3C(=O)C(=O)N(C)C)n2)ccc1OC [Example 65, N-(5-(5-chloro-4-(2-(2-(dimethylamino)-2-oxoacetyl)phenylamino)pyrimidin-2-ylamino)-2-methoxyphenyl)acrylamide] | 19 | – | – | potent activity | – | – | 25 | – | – | 80 |
| COc1ccc(NC(=O)/C=C/CN2CCOCC2)cc1Nc1ncc(Cl)c(Nc2ccccc2C(=O)C(=O)N(C)C)n1 [Example 79, (E)-N-(3-(5-chloro-4-(2-(2-(dimethylamino)-2-oxoacetyl)phenylamino)pyrimidin-2-ylamino)-4-methoxyphenyl)-4-morpholinobut-2-enamide] | 7 | – | – | – | – | – | 2 | 25 | 92 | 16 |
| C=CC(=O)Nc1cc(Nc2ncc(C)c(Nc3ccccc3C(=O)C(=O)N(C)C)n2)ccc1OC [Example 101, N-(5-(4-(2-(2-(dimethylamino)-2-oxoacetyl)phenylamino)-5-methylpyrimidin-2-ylamino)-2-methoxyphenyl)acrylamide] | 35 | – | – | – | – | – | 41 | 94 | 110 | 83 |
| COc1cc(N2CCC(N(C)C)CC2)ccc1Nc1ncc(Cl)c(Nc2ccccc2C(=O)C(N)=O)n1 [Example 4, 2-(2-(5-chloro-2-(4-(4-(dimethylamino)piperidin-1-yl)-2-methoxyphenylamino)pyrimidin-4-ylamino)phenyl)-2-oxoacetamide] | 8 | 2 | 8 | – | 65 | 4 | – | – | – | – |
| C=C(CN(C)CCN(C)C)C(=O)Nc1ccc(OC)c(Nc2ncc(Cl)c(Nc3ccccc3C(=O)C(=O)N(C)C)n2)c1 [Example 126, N-(3-(5-chloro-4-(2-(2-(dimethylamino)-2-oxoacetyl)phenylamino)pyrimidin-2-ylamino)-4-methoxyphenyl)-2-(((2-(dimethylamino)ethyl)(methyl)amino)methyl)acrylamide] | 19 | – | – | – | – | – | 2 | 47 | 93 | 5 |
